Key:
[1] = Test A: cytotoxicity in mock-infected MT-4 cells (MTT); format: cell-based; settings: human
Experimental: (§1) A rapid, sensitive and automated assay procedure was used for the in vitro evaluation of anti-HIV agents. An […] T4-cell line, MT-4, which was previously shown (Koyanagi et al., Int. J. Cancer, 36, 445-451, 1985) to be highly susceptible to and permissive for HIV infection, served as the target cell line. Inhibition of the HIV-induced cytopathic effect was used as the end point. The viability of both HIV- and mock-infected cells was assessed spectrophotometrically via the in situ reduction of 3-(4,5-dimethylthiazol-2-yl)-2,5-diphenyltetrazolium bromide (MTT). […] The percent protection achieved by the compound in HTV-infected cells was calculated by the following formula:
(§2) [formula] whereby (ODT)HIV is the optical density measured with a given concentration of the test compound in HIV-infected cells; (ODC)HIV is the optical density measured for the control unteated HIV-infected cells; (ODC)MOCK is the optical density measured for the control untreated mock-infected cells; all optical density values were determined at 540 nm. […] The ratio of CC50 to IC50 was defined as the selectivity index (SI).

HIV [2] = assay: Test A: inhibition of the HIV-induced cytopathic effect in MT-4 cells (MTT); format: cell-based
Experimental: as §1, §2

[3] = Test B: cytotoxicity in mock-infected MT-4 cells engineered with GFP under a constitutional promoter; format: cell-based; settings: human
Experimental: (§3) An […] T4-cell line, MT-4, which was previously shown (Koyanagi et al., Int. J. Cancer, 36, 445-451, 1985) to be highly susceptible to and permissive for HIV infection, served as the target cell line. In these cells, engineered with GFP (and an HIV-specific promotor), ongoing HIV-infection was measured fluorometrically. Cytotoxicity is measured in the same cells, but engineered with GFP under a constitutional promoter. The infection (or inhibition thereof) of HIV infected cells and the flourescence of mock-infected cells is assessed by the fluorescent GFP signal generated by the two above mentioned cell lines.

HIV [4] = assay: Test B: HIV infection measured fluorometrically in MT-4 cells engineered with GFP (HIV-specific promotor); format: cell-based; settings: Human immunodeficiency virus 1, MT4
Experimental: as §3

[5] = Human immunodeficiency virus 1, MT4, read-out: pIC50 (converted)

SMILES: Cc1cc(C#N)cc(C)c1Nc1cnnc(Nc2ccc(C#N)cc2)n1 [Compound 1]
- CC50 ([1]; mock-infected MT-4 cells): > 100 µM
- IC50 (HIV [2]; [5]): 2e-09 M

SMILES: Cc1cc(C#N)cc(C)c1Oc1nc(Nc2ccc(C#N)cc2)nnc1Cl [Compound 3]
- CC50 ([1]; mock-infected MT-4 cells): > 100 µM
- IC50 (HIV [2]; [5]): 5.01e-09 M

SMILES: COc1cc(OC)c(Nc2cnnc(Nc3ccc(C#N)cc3)n2)c(OC)c1 [Compound 36]
- CC50 ([1]; mock-infected MT-4 cells): > 100 µM
- IC50 (HIV [2]; [5]): 5.01e-10 M

SMILES: Cc1cc(C)c(Nc2nc(Nc3ccc(C#N)cc3)nnc2Cl)c(C)c1 [Compound 44]
- CC50 [1]: > 25.1 µM
- IC50 (HIV [2]; Human immunodeficiency virus 1, MT4, read-out: pIC50 (M) (converted)): 2.51e-09 M

SMILES: N#CCCc1cc(Cl)c(Nc2nnc(Cl)c(Nc3ccc(C#N)cc3)n2)c(Cl)c1 [Compound 74]
- CC50 [3]: > 25.1 µM
- melting point: 256 to 257 °C
- IC50 (HIV [4]): 5.01 nM

SMILES: N#CCCc1cc(Cl)c(Nc2nnc(Cl)c(Nc3ccc(C#N)cc3)n2)c(Br)c1 [Compound 75]
- CC50 [3]: > 25.1 µM
- melting point: 252 to 254 °C
- IC50 (HIV [4]): 3.16 nM

From patent publication US7585861B2, “HIV inhibiting 1,2,4-triazines” (Janssen Pharmaceutica, N.V., priority 2003, dated 2009)
